Source: US20110218103A1, “Fluoroalkyl-substituted 2-amidobenzimidazoles” (BAYER CROPSCIENCE AG, priority 2010, published 2011)

Columns and labels:
Type in all cases: in vivo
[1] = tested on: Zea mays (ZEAMX); assay: Cold stress test on crop plants, spray application in greenhouse, visual damage rating; settings: 25 g/ha, mean of three results
Method: Seeds of monocotyledonous and dicotyledonous crop plants were placed in sandy loam in wood-fiber pots, covered with soil and cultivated in a greenhouse under good growth conditions. The test plants were treated at the early leaf stage (BBCH10-BBCH13). To ensure uniform water supply before commencement of stress, the potted plants were supplied with the maximum amount of water immediately beforehand by dam irrigation and, after application, transferred in plastic inserts in order to prevent subsequent, excessively rapid drying. The inventive compounds, formulated in the form of wettable powders (WP), wettable granules (WG), suspension concentrates (SC) or emulsion concentrates (EC), were sprayed onto the green parts of the plants as an aqueous suspension at an equivalent water application rate of 600 l/ha with addition of 0.2% wetting agent (agrotin). Substance application was followed immediately by stress treatment of the plants (cold or drought stress). For cold stress treatment, the plants were kept under the following controlled conditions: “day”: 12 hours with illumination at 8° C. “night”: 12 hours without illumination at 1° C. The duration of the respective stress phases was guided mainly by the state of the untreated, stressed control plants and thus varies from crop to crop. It was ended (by re-irrigating or transfer to a greenhouse with good growth conditions) as soon as irreversible damage is observed on the untreated, stressed control plants. In the case of dicotyledonous crops, for example oilseed rape and soya, the duration of the drought stress phase was between 3 and 5 days, in the case of monocotyledonous crops, for example wheat, barley or corn, between 6 and 10 days. The duration of the cold stress phase varied between 12 and 14 days. The end of the stress phase was followed by an approx. 5-7-day recovery phase, during which the plants were once again kept under good growth conditions in a greenhouse. […] The intensity of damage was first assessed as a percentage (100%=plants have died, 0%=like control plants). […]

[2] = tested on: Brassica napus (BRSNS); assay: Drought stress test on crop plants, spray application in greenhouse, visual damage rating; settings: 50 g/ha, mean of three results
Method: Seeds of monocotyledonous and dicotyledonous crop plants were placed in sandy loam in wood-fiber pots, covered with soil and cultivated in a greenhouse under good growth conditions. The test plants were treated at the early leaf stage (BBCH10-BBCH13). To ensure uniform water supply before commencement of stress, the potted plants were supplied with the maximum amount of water immediately beforehand by dam irrigation and, after application, transferred in plastic inserts in order to prevent subsequent, excessively rapid drying. The inventive compounds, formulated in the form of wettable powders (WP), wettable granules (WG), suspension concentrates (SC) or emulsion concentrates (EC), were sprayed onto the green parts of the plants as an aqueous suspension at an equivalent water application rate of 600 l/ha with addition of 0.2% wetting agent (agrotin). Substance application was followed immediately by stress treatment of the plants (cold or drought stress). For cold stress treatment, the plants were kept under the following controlled conditions: Drought stress was induced by gradual drying out under the following conditions: “day”: 14 hours with illumination at 26° C. “night”: 10 hours without illumination at 18° C. The duration of the respective stress phases was guided mainly by the state of the untreated, stressed control plants and thus varies from crop to crop. It was ended (by re-irrigating or transfer to a greenhouse with good growth conditions) as soon as irreversible damage is observed on the untreated, stressed control plants. In the case of dicotyledonous crops, for example oilseed rape and soya, the duration of the drought stress phase was between 3 and 5 days, in the case of monocotyledonous crops, for example wheat, barley or corn, between 6 and 10 days. The duration of the cold stress phase varied between 12 and 14 days. The end of the stress phase was followed by an approx. 5-7-day recovery phase, during which the plants were once again kept under good growth conditions in a greenhouse. In order to rule out any influence of the effects observed by any fungicidal action of the test compounds, it was additionally ensured that the tests proceed without fungal infection and without infection pressure. After the recovery phase had ended, the intensities of damage were rated visually compared to untreated, unstressed controls of the same age (in the case of drought stress) or the same growth stage (in the case of cold stress). The intensity of damage was first assessed as a percentage (100%=plants have died, 0%=like control plants). These values were then used to calculate the efficacy of the test compounds (=percentage reduction in the intensity of damage as a result of substance application) by the following formula: [formula] EF: efficacy (%) DVus: damage value of the untreated, stressed control DVts: damage value of the plants treated with test compound The tables below list mean values in each case from three results of the same test. Effects of selected compounds of the formula (I) under drought stress: BRSNS=Brassica napus

[3] = tested on: Zea mays (ZEAMX); assay: as above; settings: 25 g/ha, mean of three results
Method: Seeds of monocotyledonous and dicotyledonous crop plants were placed in sandy loam in wood-fiber pots, covered with soil and cultivated in a greenhouse under good growth conditions. The test plants were treated at the early leaf stage (BBCH10-BBCH13). To ensure uniform water supply before commencement of stress, the potted plants were supplied with the maximum amount of water immediately beforehand by dam irrigation and, after application, transferred in plastic inserts in order to prevent subsequent, excessively rapid drying. The inventive compounds, formulated in the form of wettable powders (WP), wettable granules (WG), suspension concentrates (SC) or emulsion concentrates (EC), were sprayed onto the green parts of the plants as an aqueous suspension at an equivalent water application rate of 600 l/ha with addition of 0.2% wetting agent (agrotin). Substance application was followed immediately by stress treatment of the plants (cold or drought stress). For cold stress treatment, the plants were kept under the following controlled conditions: Drought stress was induced by gradual drying out under the following conditions: “day”: 14 hours with illumination at 26° C. “night”: 10 hours without illumination at 18° C. The duration of the respective stress phases was guided mainly by the state of the untreated, stressed control plants and thus varies from crop to crop. It was ended (by re-irrigating or transfer to a greenhouse with good growth conditions) as soon as irreversible damage is observed on the untreated, stressed control plants. In the case of dicotyledonous crops, for example oilseed rape and soya, the duration of the drought stress phase was between 3 and 5 days, in the case of monocotyledonous crops, for example wheat, barley or corn, between 6 and 10 days. The duration of the cold stress phase varied between 12 and 14 days. The end of the stress phase was followed by an approx. 5-7-day recovery phase, during which the plants were once again kept under good growth conditions in a greenhouse. In order to rule out any influence of the effects observed by any fungicidal action of the test compounds, it was additionally ensured that the tests proceed without fungal infection and without infection pressure. After the recovery phase had ended, the intensities of damage were rated visually compared to untreated, unstressed controls of the same age (in the case of drought stress) or the same growth stage (in the case of cold stress). The intensity of damage was first assessed as a percentage (100%=plants have died, 0%=like control plants). These values were then used to calculate the efficacy of the test compounds (=percentage reduction in the intensity of damage as a result of substance application) by the following formula: [formula] EF: efficacy (%) DVus: damage value of the untreated, stressed control DVts: damage value of the plants treated with test compound The tables below list mean values in each case from three results of the same test. Effects of selected compounds of the formula (I) under drought stress: ZEAMX=Zea mays

NC(=O)c1cccc2[nH]c(C(F)(F)F)nc12 [1-14]
>5%: EF (ZEAMX), efficacy = percentage reduction in the intensity of damage [1] | EF (BRSNS), efficacy = percentage reduction in the intensity of damage [2] | EF (ZEAMX), efficacy = percentage reduction in the intensity of damage [3]
